The text below walks through data of patent US8344028B2, “Gamma-amino-butyric acid derivatives as GABAB receptor ligands” (XenoPort, Inc., priority 2009, dated 2013).

In the assay the target is GABAB receptor (Homo sapiens, UniProt Q9UBS5). Put plainly: GABAB receptor agonist or partial agonist activity by binding, electrophysiology, cAMP and/or Ca2+ assay methods (Examples 83-86). Type of assay: cell-based. As to the method: An assay using rat cerebral cortex membranes was used to determine the affinity of GABAB receptor ligands for the GABAB receptor.
Sequence of GABAB receptor (Q9UBS5 20-961): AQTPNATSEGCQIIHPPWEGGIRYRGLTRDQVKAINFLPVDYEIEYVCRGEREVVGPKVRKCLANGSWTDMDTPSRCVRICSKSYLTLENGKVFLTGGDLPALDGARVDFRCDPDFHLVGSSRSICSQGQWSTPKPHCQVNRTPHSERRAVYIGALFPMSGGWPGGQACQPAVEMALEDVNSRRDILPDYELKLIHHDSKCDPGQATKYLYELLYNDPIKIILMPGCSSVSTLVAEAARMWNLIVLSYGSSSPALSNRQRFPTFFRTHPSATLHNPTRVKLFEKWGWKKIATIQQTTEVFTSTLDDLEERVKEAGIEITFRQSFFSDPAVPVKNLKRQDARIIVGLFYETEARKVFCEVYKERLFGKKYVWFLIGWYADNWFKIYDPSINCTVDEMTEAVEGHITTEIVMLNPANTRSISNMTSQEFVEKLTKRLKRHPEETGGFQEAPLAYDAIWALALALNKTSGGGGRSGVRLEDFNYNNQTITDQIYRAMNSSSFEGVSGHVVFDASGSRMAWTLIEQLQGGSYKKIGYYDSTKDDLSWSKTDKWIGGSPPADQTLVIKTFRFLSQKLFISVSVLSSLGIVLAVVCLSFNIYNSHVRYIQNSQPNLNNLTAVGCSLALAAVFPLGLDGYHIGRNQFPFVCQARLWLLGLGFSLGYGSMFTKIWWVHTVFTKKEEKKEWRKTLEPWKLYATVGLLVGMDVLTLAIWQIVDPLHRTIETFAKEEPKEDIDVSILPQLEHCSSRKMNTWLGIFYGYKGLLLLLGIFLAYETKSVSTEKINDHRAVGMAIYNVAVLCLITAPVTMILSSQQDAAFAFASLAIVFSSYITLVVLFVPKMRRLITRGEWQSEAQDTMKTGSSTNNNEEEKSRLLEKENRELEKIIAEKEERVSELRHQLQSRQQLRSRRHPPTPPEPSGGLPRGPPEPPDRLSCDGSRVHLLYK
Sequence of GABAB receptor (O75899 42-941 partner): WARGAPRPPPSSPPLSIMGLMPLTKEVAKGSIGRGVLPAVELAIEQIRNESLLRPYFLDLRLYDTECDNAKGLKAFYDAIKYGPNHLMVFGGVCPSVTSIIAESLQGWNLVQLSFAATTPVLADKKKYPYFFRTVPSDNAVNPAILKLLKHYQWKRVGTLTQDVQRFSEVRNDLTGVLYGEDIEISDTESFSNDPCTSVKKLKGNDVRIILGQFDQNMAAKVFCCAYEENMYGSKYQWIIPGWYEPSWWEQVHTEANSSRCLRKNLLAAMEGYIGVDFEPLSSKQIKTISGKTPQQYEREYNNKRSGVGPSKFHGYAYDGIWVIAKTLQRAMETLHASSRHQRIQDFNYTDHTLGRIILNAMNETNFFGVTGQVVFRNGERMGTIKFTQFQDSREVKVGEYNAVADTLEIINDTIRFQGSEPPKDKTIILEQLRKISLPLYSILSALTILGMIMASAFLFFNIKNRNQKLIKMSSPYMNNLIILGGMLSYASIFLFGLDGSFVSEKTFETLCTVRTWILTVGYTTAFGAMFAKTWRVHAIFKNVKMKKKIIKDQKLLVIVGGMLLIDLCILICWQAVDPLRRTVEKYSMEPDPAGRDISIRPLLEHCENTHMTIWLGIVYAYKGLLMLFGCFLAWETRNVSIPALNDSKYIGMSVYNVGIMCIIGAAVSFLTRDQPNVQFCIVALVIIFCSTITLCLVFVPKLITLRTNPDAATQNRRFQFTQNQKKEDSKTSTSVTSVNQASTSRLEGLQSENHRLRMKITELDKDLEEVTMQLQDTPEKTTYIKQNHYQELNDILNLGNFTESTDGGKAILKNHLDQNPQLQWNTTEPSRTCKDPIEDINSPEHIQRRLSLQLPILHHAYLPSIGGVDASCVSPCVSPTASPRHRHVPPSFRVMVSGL
An assay buffer of 50 mM Tris pH 7.4 was prepared with 100 μM of isoguvacine, to block GABAA interactions. The assay buffer with isoguvacine was used for dilution of membranes, compounds, and radiolabel.
Rat cerebral cortex membranes were diluted in assay buffer at 1 mg/mL and aliquoted into a 96-well plate at 900 μL/well. Buffer or test compound were added at 20-times final concentration in the buffer at 50 μL/well. Membranes and test compounds or buffer were incubated for 10 min. at room temperature. Radiolableled [S—(R*,R*)]-[3-[[1-(3,4-dichlorophenyl)ethyl]amino]-2-hydroxypropyl](cyclohexylmethyl) phosphinic acid (CGP54626) was then added at 50 μL/well in the buffer at 1-10 nM concentration in 50 μl. […] The assay mixture was filtered using Brandell filtration apparatus and GFB filters, washed twice with 3 mL of 4° C., 50 mM Tris pH 7.4, buffer without isoguvacine. The filters were then dried at room temperature and the dried filters punched out and placed in individual vials. Three (3) mL of scintillation fluid was added to each vial and the radiolabel counted on the scintillation counter. The inverse amount of radiolabel was indicative of binding of a test compound to the GABAB receptor.
The following procedure was used to determine the level of intracellular cAMP. Recombinant HEK cells expressing the GABAB R1a2 receptor were used in the experiments. cAMP levels were measured using a cAMP XS^+ HitHunter™ Chemiluminescence Assay Kit (90-0075-02, GE Healthcare Biosciences Corp.). Cells were seeded overnight at 5,000 cells per well, in black, clear bottom 96-well plates. The following morning, cells were washed twice with 100 μL PBS per well. Forskolin was weighed out and dissolved in DMSO to a final concentration 100 mM. One-hundred (100) μM forskolin solutions were prepared in PBS with and without test compound at 1-times final concentration. Thirty (30) μL of the test solutions were added to the wells and incubated for 1 h at room temperature. The cAMP concentration was determined according to the protocol described in the cAMP assay kit, maintaining the plate at room temperature and in the dark. […] Each well was read for 6 seconds. The untransformed data was then analyzed.
The following procedure was used to determine the GABAB receptor agonist activity of a compound as reflected by activation of Ca^2+ signaling. HEK TREx cells expressing GABABR1a2 under tetracycline induction control, and Gqi chimeric protein (expressed constitutively), allowing GABABR coupling through the Ca^2+ signaling pathway were used in the experiments.
Cells were seeded in media containing tetracycline overnight at 100,000 cells/well, in black, clear-bottom, 96-well plates. The following morning, cells were washed twice with 100 μL HBSS buffer per well. Fluorescent Ca^2+ indicator dye was prepared using the materials and procedure described in the F362056 Fluo-4 NW Calcium Assay Kit (Invitrogen, Carlsbad, Calif.). Ten (10) mL of kit buffer and 100 μl of kit Probenecid were added to individual kit dye vials, and rolled back and forth several times to dissolve the dye. Cells were then loaded into the dye solution at 50 μL per well. The cells and dye were incubated for 30 min at 37° C., and then incubated for an additional 30 min at room temperature in the dark. Test compounds are dissolved in HBSS buffer at twice final concentration. Duplicate wells were used for each unique condition. Solution containing the test compound was added to the wells using a FLEXStation II (Molecular Devices, Sunnyvale, Calif.). Using the instrument in kinetic mode in which each well was read every 2 sec over a total collection time of 50 sec fluorescence was measured using an excitation wavelength 494 nm and a detection wavelength of 516 nm. A normalized fluorescence value for each well was calculated using the following procedure.

SMILES strings stand for the structures.

`Cl.NC[C@H](CC(=O)O)c1ccc(Cl)c(-c2ccccc2C(=O)O)c1` [2-{5-[(1R)-2-amino-1-(carboxymethyl)ethyl]-2-chlorophenyl}benzoic acid hydrochloride]: the “GABAB receptor agonist or partial agonist activity” value is “agonist or partial agonist activity”.

`Cl.NC[C@H](CC(=O)O)c1ccc(Cl)c(/C=C/c2cccc(C(=O)O)c2)c1` [3-((1E)-2-{5-[(1R)-2-amino-1-(carboxymethyl)ethyl]-2-chlorophenyl}vinyl)benzoic acid hydrochloride]: the “GABAB receptor agonist or partial agonist activity” value is “agonist or partial agonist activity”.

For the molecule `Cl.NC[C@H](CC(=O)O)c1ccc(Cl)c(OCc2cccc(C(=O)O)c2)c1` [3-({5-[(1R)-2-amino-1-(carboxymethyl)ethyl]-2-chlorophenoxy}methyl)benzoic acid hydrochloride], the “GABAB receptor agonist or partial agonist activity” value is reported as “agonist or partial agonist activity”. Next, `Cl.NC[C@H](CC(=O)O)c1ccc(Cl)cc1/C=C/c1ccccc1` [3-[2-((1E)-2-phenylvinyl)-4-chlorophenyl](3R)-4-aminobutanoic acid hydrochloride]: “agonist or partial agonist activity”; `Cl.NC[C@H](CC(=O)O)c1ccc(Cl)c(/C=C/c2ccccn2)c1` [3-[3-((1E)-2-(2-pyridyl)vinyl)-4-chlorophenyl](3R)-4-aminobutanoic acid hydrochloride]: “agonist or partial agonist activity”.

Regarding `Cl.NC[C@H](CC(=O)O)c1ccc(Cl)c(NCc2cccc(C(=O)O)c2)c1` [3-[({5-[(1R)-2-amino-1-(carboxymethyl)ethyl]-2-chlorophenyl}amino)methyl]benzoic acid hydrochloride], the “GABAB receptor agonist or partial agonist activity” value is “agonist or partial agonist activity”. `Cl.NC[C@H](CC(=O)O)c1ccc(Cl)cc1-c1cccc(C(=O)O)c1` [3-{2-[(1R)-2-amino-1-(carboxymethyl)ethyl]-5-chlorophenyl}benzoic acid hydrochloride]: the “GABAB receptor agonist or partial agonist activity” value was “agonist or partial agonist activity”. For the molecule `Cl.N#Cc1ccc(C(=O)O)cc1-c1cc([C@H](CN)CC(=O)O)ccc1Cl` [3-{5-[(1R)-2-amino-1-(carboxymethyl)ethyl]-2-chlorophenyl}-4-cyanobenzoic acid hydrochloride], the “GABAB receptor agonist or partial agonist activity” value is “agonist or partial agonist activity”.

For the molecule `Cc1ccc(C(=O)O)cc1-c1cc([C@H](CN)CC(=O)O)ccc1Cl.Cl` [3-{5-[(1R)-2-amino-1-(carboxymethyl)ethyl]-2-chlorophenyl}-4-methylbenzoic acid hydrochloride], the “GABAB receptor agonist or partial agonist activity” value is on record as “agonist or partial agonist activity”.

For `Cl.NC[C@H](CC(=O)O)c1ccc(Cl)c(-c2cnccc2C(=O)O)c1` [3-{5-[(1R)-2-amino-1-(carboxymethyl)ethyl]-2-chlorophenyl}pyridine-4-carboxylic acid hydrochloride], the “GABAB receptor agonist or partial agonist activity” value is “agonist or partial agonist activity”.

On to `NC[C@H](CC(=O)O)c1cc(Br)c(Cl)c(-c2cc(Cl)cc(C(=O)O)c2)c1` [3-{5-[(1R)-2-amino-1-(carboxymethyl)ethyl]-3-bromo-2-chlorophenyl}-5-chlorobenzoic acid], for which the “GABAB receptor agonist or partial agonist activity” value is “agonist or partial agonist activity”. As to `Cl.NC[C@H](CC(=O)O)c1cc(Br)c(Cl)c(-c2cccc(C(=O)O)c2)c1` [3-{5-[(1R)-2-amino-1-(carboxymethyl)ethyl]-3-bromo-2-chlorophenyl}benzoic acid hydrochloride], the “GABAB receptor agonist or partial agonist activity” value is recorded as “agonist or partial agonist activity”. In the case of `Cl.NC[C@@H](CC(=O)O)c1ccc(Cl)c(-c2cccc(C(=O)O)c2)c1` [3-{5-[(1S)-2-amino-1-(carboxymethyl)ethyl]-2-chlorophenyl}benzoic acid hydrochloride], the “GABAB receptor agonist or partial agonist activity” value is recorded as “agonist or partial agonist activity”. In the case of `Cl.NC[C@H](CC(=O)O)c1ccc(Cl)c(Cc2ccc(C(=O)O)cc2)c1` [4-({5-[(1R)-2-amino-1-(carboxymethyl)ethyl]-2-chlorophenyl}methyl)benzoic acid hydrochloride], the “GABAB receptor agonist or partial agonist activity” value was “agonist or partial agonist activity”. As to `COc1cncc(-c2cc(C(CN)CC(=O)O)ccc2Cl)c1.Cl` (stereo not shown) [4-amino-3-[4-chloro-3-(5-methoxy(3-pyridyl))phenyl]butanoic acid hydrochloride], the “GABAB receptor agonist or partial agonist activity” value is reported as “agonist or partial agonist activity”. `NC[C@H](CC(=O)O)c1ccc(Cl)c(CCCC(=O)O)c1` [4-{5-[(1R)-2-amino-1-(carboxymethyl)ethyl]-2-chlorophenyl}butanoic acid]: the “GABAB receptor agonist or partial agonist activity” value is given as “agonist or partial agonist activity”. As to `Cl.NC[C@H](CC(=O)O)c1ccc(Cl)c(-c2ccc(C(=O)O)nc2)c1` [5-{5-[(1R)-2-amino-1-(carboxymethyl)ethyl]-2-chlorophenyl}pyridine-2-carboxylic acid hydrochloride], the “GABAB receptor agonist or partial agonist activity” value is listed as “agonist or partial agonist activity”.

Consider `Cl.NC[C@H](CC(=O)O)c1ccc(Cl)c(-c2cccc(C(=O)O)n2)c1` [6-{5-[(1R)-2-amino-1-(carboxymethyl)ethyl]-2-chlorophenyl}pyridine-2-carboxylic acid hydrochloride], for which the “GABAB receptor agonist or partial agonist activity” value is given as “agonist or partial agonist activity”. As for `Cl.NC[C@H](CC(=O)O)c1ccc(Cl)c(-c2cncc3ccccc23)c1` [(3R)-4-amino-3-(4-chloro-3-(4-isoquinolyl)phenyl)butanoic acid hydrochloride], the “GABAB receptor agonist or partial agonist activity” value is on record as “agonist or partial agonist activity”. For `Cl.NC[C@H](CC(=O)O)c1ccc(Cl)c(-c2ccncc2)c1` [(3R)-4-amino-3-(4-chloro-3-(4-pyridyl)phenyl)butanoic acid hydrochloride], the “GABAB receptor agonist or partial agonist activity” value is on record as “agonist or partial agonist activity”.

As to `Cl.NC[C@H](CC(=O)O)c1ccc(Cl)c(Oc2ccncc2)c1` [(3R)-4-amino-3-(4-chloro-3-(4-pyridyloxy)phenyl)butanoic acid hydrochloride], the “GABAB receptor agonist or partial agonist activity” value is “agonist or partial agonist activity”.

With `Cl.N#Cc1ccccc1CNc1cc([C@H](CN)CC(=O)O)ccc1Cl` [(3R)-4-amino-3-(4-chloro-3-{[(2-cyanophenyl)methyl]amino}phenyl)butanoic acid hydrochloride], the “GABAB receptor agonist or partial agonist activity” value is “agonist or partial agonist activity”. For `Cl.NC[C@H](CC(=O)O)c1ccc(Cl)c(NCc2ccncc2Cl)c1` [(3R)-4-amino-3-(4-chloro-3-{[(3-chloro(4-pyridyl))methyl]amino}phenyl)butanoic acid hydrochloride], the “GABAB receptor agonist or partial agonist activity” value is on record as “agonist or partial agonist activity”. On to `Cl.NC[C@H](CC(=O)O)c1ccc(Cl)c(NCc2cccc(F)c2)c1` [(3R)-4-amino-3-(4-chloro-3-{[(3-fluorophenyl)methyl]amino}phenyl)butanoic acid hydrochloride], for which the “GABAB receptor agonist or partial agonist activity” value is “agonist or partial agonist activity”.

For `Cl.NC[C@H](CC(=O)O)c1ccc(Cl)c(NCc2ccc(F)cc2)c1` [(3R)-4-amino-3-(4-chloro-3-{[(4-fluorophenyl)methyl]amino}phenyl)butanoic acid hydrochloride], the “GABAB receptor agonist or partial agonist activity” value is reported as “agonist or partial agonist activity”.
